Laboratory results as given in ChEMBL document CHEMBL1201862, “PubChem BioAssay data set” (2004).
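Grown in 96-well plates, cells were treated for 48 hours with each compound at five concentrations. Insufficient inhibition: endpoint recorded as highest concentration tested. At the GI50, growth is halved.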 The source made the active and inactive calls. Rule as the data show it: active = GI50 up to about 1.1 µM and inactive = higher.

What was measured:
Assay in all cases: NCI-60 cell line screen, 48 h
[1] = test system: NCI-H23
[2] = test system: M14
[3] = test system: OVCAR-3
[4] = test system: SF-295
[5] = test system: RPMI-8226
[6] = test system: Malme-3M
[7] = test system: ACHN
[8] = test system: IGROV-1
[9] = test system: NCI-H460
[10] = test system: HCC 2998
[11] = test system: UACC-257
[12] = test system: SK-MEL-2
[13] = test system: HCT-116
[14] = test system: CCRF-CEM
[15] = test system: LOX IMVI

Measured: GI50

O=C(c1ccccc1)c1c(-c2ccccc2)sc2nc3ccccc3nc12
inactive: [1] > 100 µM | [2] > 100 µM | [3] > 100 µM | [4] 52.7 µM | [5] > 100 µM | [6] 92.3 µM | [7] > 100 µM | [8] > 100 µM | [9] > 100 µM | [10] > 100 µM | [11] > 100 µM | [12] > 100 µM | [13] > 100 µM | [14] > 100 µM

COc1ccccc1/C=C(\C#N)c1ccccc1
inactive: [1] 41.5 µM | [2] 32.8 µM | [3] 19.5 µM | [4] 52.7 µM | [5] 20.8 µM | [7] 59.4 µM | [8] 43.3 µM | [9] 23.8 µM | [10] 34.4 µM | [11] 31.1 µM | [15] 46.9 µM | [12] 27.2 µM | [13] 29.1 µM | [14] 17.7 µM

Cc1cc([N+](=O)[O-])ccc1Nc1cccc(Cl)c1C
inactive: [1] 17.1 µM | [2] 15.5 µM | [3] 13.7 µM | [4] 18.9 µM | [6] 15.2 µM | [7] 17.8 µM | [8] 13.6 µM | [10] 18.3 µM | [11] 18 µM | [15] 17.3 µM | [12] 14.9 µM | [13] 16.1 µM | [14] 16.5 µM

O=C1c2ccccc2-c2cccc3ccc(Cc4ccccc4)c1c23
inactive: [1] > 100 µM | [2] > 100 µM | [3] > 100 µM | [4] > 100 µM | [5] > 100 µM | [6] > 100 µM | [7] > 100 µM | [8] > 100 µM | [9] > 100 µM | [10] > 100 µM | [11] > 100 µM | [12] > 100 µM | [13] > 100 µM | [14] > 100 µM

CN(C)CCCCC1CCN(CC(=O)N2c3ccccc3NC(=O)c3ccccc32)CC1
inactive: [1] > 100 µM | [2] 28.1 µM | [3] > 100 µM | [4] > 100 µM | [5] > 100 µM | [6] > 100 µM | [10] > 100 µM | [11] > 100 µM | [12] > 100 µM | [13] > 100 µM | [14] 69.8 µM

ClCCCCOC1CCCCO1 (stereo not given)
inactive: [1] > 100 µM | [2] > 100 µM | [3] > 100 µM | [4] > 100 µM | [6] > 100 µM | [7] > 100 µM | [8] > 100 µM | [9] > 100 µM | [10] > 100 µM | [11] > 100 µM | [12] > 100 µM | [13] > 100 µM

CCCN1C(=O)C/C(=C\C(C)=O)Nc2ccccc21
inactive: [1] > 100 µM | [2] > 100 µM | [3] > 100 µM | [4] > 100 µM | [6] > 100 µM | [7] > 100 µM | [8] > 100 µM | [9] > 100 µM | [10] > 100 µM | [15] > 100 µM | [12] > 100 µM | [13] > 100 µM | [14] > 100 µM

N#C/N=C1\NCCC(=O)N1CCc1c[nH]c2ccccc12
inactive: [1] > 100 µM | [2] > 100 µM | [3] > 100 µM | [4] > 100 µM | [5] > 100 µM | [8] > 100 µM | [10] > 100 µM | [11] > 100 µM | [15] > 100 µM | [13] > 100 µM | [14] > 100 µM

O=C1/C(=N\O)S(=O)(=O)c2ccccc21
inactive: [2] > 100 µM | [4] > 100 µM | [5] > 100 µM | [6] > 100 µM | [7] > 100 µM | [8] > 100 µM | [9] > 100 µM | [10] > 100 µM | [11] > 100 µM | [15] > 100 µM | [12] > 100 µM | [13] > 100 µM | [14] > 100 µM

O=S(=O)(c1ccccc1)n1cnc(CCc2ccccc2)n1
inactive: [1] > 100 µM | [2] > 100 µM | [3] > 100 µM | [4] > 100 µM | [5] > 100 µM | [6] > 100 µM | [7] > 100 µM | [8] > 100 µM | [9] > 100 µM | [11] > 100 µM | [15] > 100 µM | [12] > 100 µM | [13] > 100 µM | [14] > 100 µM

COc1ccc2c(c1)OCCCN(C)OC2c1ccccc1 (stereo not given)
inactive: [1] > 100 µM | [3] > 100 µM | [4] > 100 µM | [5] > 100 µM | [6] > 100 µM | [7] > 100 µM | [8] > 100 µM | [10] > 100 µM | [11] > 100 µM | [12] > 100 µM | [13] > 100 µM
